This is an account of results in US20110092448A1, “Peptide Conjugate for Oral Delivery of Hydrophilic Peptide Analgesics” (METABOLIC PHARMACEUTICALS LIMITED, priority 2005, published 2011).

Data set [1] deals with neuronal nicotinic acetylcholine receptor. In kind it is cell-based, bovine.
Data set [2] relates to chronic neuropathy (CCI) in Sprague-Dawley rats. The note with it: rat, in vivo.
In data set [3] the test system is STZ diabetic Sprague-Dawley rats with neuropathic pain. The settings on record: rat, in vivo.
For data set [4] the following is noted: rat, in vivo.

Read-outs that look alike come from different tables or passages of the source.

In the case of “Ac-Tyr-Leu-Arg-Ile-Val-Gly-Cys-Cys-Ser-Asp-Pro-Arg-Cys-Asn-Tyr-Asp-His-Pro-Glu-Ile-Cys-NH2 (Ac-YLRIVGCCSDPRCNYDHPEIC-NH2; cysteine pairing not given here) [ACV3]”, the “catecholamine release in response to nicotine” value in data set [1] is given as “decreased catecholamine release”. In addition, in data set [2] (2 mg/kg), the “analgesic effect vs vehicle group” value is recorded as “significant difference” and the “withdrawal threshold after one hour” value is “increase in withdrawal threshold”. Moreover, in data set [3], the relative oral availability was 30-70%. Moreover, in data set [3] (po), the “minimum dose for maximal activity” value was ~0.3 mg/kg and the “oral absorption (time profile of effect)” value was “rapid”. Also, the “minimum dose for maximal activity” value in data set [3] (sc) is on record as ~0.3 mg/kg.
Turning to `CC[C@H](C)[C@@H]1NC(=O)[C@H](CCC(=O)O)NC(=O)[C@@H]2CCCN2C(=O)[C@H](Cc2cnc[nH]2)NC(=O)[C@H](CC(=O)O)NC(=O)[C@H](Cc2ccc(O)cc2)NC(=O)[C@H](CC(N)=O)NC(=O)[C@@H]2CSSC[C@H](NC(=O)CN)C(=O)N[C@@H](CSSC[C@@H](C(N)=O)NC1=O)C(=O)N[C@@H](CO)C(=O)N[C@@H](CC(=O)O)C(=O)N1CCC[C@H]1C(=O)N[C@@H](CCCNC(=N)N)C(=O)N2` [ACV1, Gly-Cys-Cys-Ser-Asp-Pro-Arg-Cys-Asn-Tyr-Asp-His-Pro-Glu-Ile-Cys-NH2], the “catecholamine release in response to nicotine” value in data set [1] is recorded as “decreased catecholamine release”. Besides, in data set [4], the “oral availability compared with subcutaneous (plasma concentrations)” value was 1-2%. Also, the results for the “analgesic effect (relieving pain)” value in data set [2], in data set [2] (po) and in data set [2] (sc) were “not effective”, “not effective” and “effective”, respectively.
